Test results published in PubChem BioAssay (NCI).
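How tested: cells in 96-well plates exposed to compound for 48 hours at five concentrations. Definition used: TGI = concentration required for complete inhibition of growth.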

How the values were obtained:
Assay in all cases: DTP human tumour cell line panel, 48 h
[1] = tested on: COLO 205 colon
[2] = tested on: HL-60(TB) leukemia
[3] = tested on: NCI-H23 lung
[4] = tested on: OVCAR-8 ovarian
[5] = tested on: HT29 colon
[6] = tested on: NCI-H460 lung
[7] = tested on: 786-0 renal
[8] = tested on: OVCAR-4 ovarian
[9] = tested on: NCI/ADR-RES ovarian

| Compound | TGI [1] | TGI [2] | TGI [3] | TGI [4] | TGI [5] | TGI [6] | TGI [7] | TGI [8] | TGI [9] |
| --- | --- | --- | --- | --- | --- | --- | --- | --- | --- |
| COc1ccc(NC(=O)CCc2cc(C(C)(C)C)n[nH]2)cc1 | > 100 µM | > 100 µM | > 100 µM | > 100 µM | > 100 µM | > 100 µM | > 100 µM | – | – |
| C/C(CCn1[nH]c(=O)ccc1=O)=N\Nc1ccc([N+](=O)[O-])cc1[N+](=O)[O-] | – | > 100 µM | > 100 µM | > 100 µM | > 100 µM | > 100 µM | > 100 µM | > 100 µM | – |
| CCOC(=O)c1c2cccccc2n2c(=O)cc(C)nc12 | > 100 µM | > 100 µM | > 100 µM | > 100 µM | > 100 µM | > 100 µM | > 100 µM | > 100 µM | – |
| O=C(O)CCSC(=O)Nc1ccccc1Cl | > 100 µM | – | > 100 µM | > 100 µM | > 100 µM | > 100 µM | > 100 µM | > 100 µM | – |
| O=C(O)CCSC(=S)Nc1cccc(F)c1 | > 100 µM | – | > 100 µM | > 100 µM | > 100 µM | > 100 µM | > 100 µM | > 100 µM | – |
| Cc1ccc(NC(=O)CC/C(CC(=O)C(C)(C)C)=N\Nc2ccc([N+](=O)[O-])cc2[N+](=O)[O-])cc1C | > 100 µM | – | > 100 µM | > 100 µM | > 100 µM | > 100 µM | > 100 µM | – | – |
| COc1cc(CC(C(=O)O)C(=O)O)c(OC)cc1CC(C(=O)O)C(=O)O | > 100 µM | > 100 µM | > 100 µM | > 100 µM | > 100 µM | > 100 µM | > 100 µM | > 100 µM | – |
| COc1cc2c(cc1OC)c1c(OC)c(OC)cc3c1c1c2sc(=S)n1CC3 | > 100 µM | 81.8 µM | > 100 µM | > 100 µM | > 100 µM | > 100 µM | 35.1 µM | > 100 µM | – |
| CC1=NN(C(=O)c2ccc(Cl)cc2)C(=O)/C1=C/c1ccco1 | > 100 µM | > 100 µM | > 100 µM | > 100 µM | > 100 µM | > 100 µM | > 100 µM | > 100 µM | – |
| CC1=C2[C@H](c3ccccc3)C3C=CC2(c2ccccc23)N(C(=O)C(c2ccccc2)c2ccccc2)C1=O (some centres not stated) | > 100 µM | > 100 µM | > 100 µM | > 100 µM | > 100 µM | > 100 µM | > 100 µM | > 100 µM | – |
| COC(=O)C(C(=O)C(=O)Nc1ccc(OC)cc1[N+](=O)[O-])c1nc2cc(C)c(C)cc2[nH]c1=O (configuration not stated) | > 100 µM | > 100 µM | > 100 µM | > 100 µM | > 100 µM | > 100 µM | > 100 µM | > 100 µM | – |
| COc1cc(/C=C\c2ccc(OC(C)=O)cc2)cc(OC)c1OC | 94.2 µM | – | 13.2 µM | > 100 µM | > 100 µM | > 100 µM | > 100 µM | > 100 µM | – |
| Nc1ccc2c(c1)Oc1c(F)c(F)cc3c(=O)c(C(=O)O)cn-2c13 | > 100 µM | > 100 µM | > 100 µM | > 100 µM | > 100 µM | – | > 100 µM | > 100 µM | – |
| CC(=O)O/N=C(Cl)/C(Cl)=N/OC(C)=O | – | > 100 µM | > 100 µM | > 100 µM | > 100 µM | > 100 µM | > 100 µM | > 100 µM | – |
| Cc1nc(Nc2ccccc2)sc1C(=O)CC(=O)C(=O)NC12CC3CC(CC(C3)C1)C2 | > 100 µM | > 100 µM | > 100 µM | > 100 µM | > 100 µM | > 100 µM | > 100 µM | > 100 µM | – |
| CCN(CC)CC(C)(C)C(=O)/C=C/c1ccc(/C=C/C(=O)C(C)(C)CN(CC)CC)cc1 | 1.29 µM | 0.22 µM | 4.73 µM | 0.774 µM | 0.534 µM | 0.755 µM | 0.411 µM | – | 6.59 µM |
| COc1ccc(/C=c2/sc3n(c2=O)NC(c2ccc(Cl)cc2)NN=3)cc1 (configuration not stated) | > 100 µM | – | > 100 µM | > 100 µM | > 100 µM | > 100 µM | > 100 µM | > 100 µM | – |
| CCOC(=O)NC(=O)c1cn(CCN2CCNCC2)c(=O)[nH]c1=O | > 100 µM | > 100 µM | > 100 µM | > 100 µM | > 100 µM | > 100 µM | > 100 µM | > 100 µM | – |
| Cc1c(C2Cc3ccccc3N2)c2ccccc2n1C (configuration not stated) | > 100 µM | > 100 µM | > 100 µM | > 100 µM | > 100 µM | > 100 µM | > 100 µM | > 100 µM | – |
